Literature values, collected in patent US9339034B2, “Use of thaxtomin for selective control of rice and aquatic based weeds” (MARRONE BIO INNOVATIONS, INC., priority 2009, dated 2016).

Tested on: weeds
Settings: in vivo; cited from earlier work

## C=C(CO)C(C)(O)CC(=O)O (stereo not shown) [mevalocidin]
  time to kill weeds: 3-4 weeks
